In patent US12318403B2, “2′3′-cyclic dinucleotides and prodrugs thereof” (INSTITUTE OF ORGANIC CHEMISTRY AND BIOCHEMISTRY ASCR, V.V.I., priority 2019, dated 2025):
Read-outs that look alike come from different tables or passages of the source.

Key:
human WT STING = biological target: T1, human WT STING (Homo sapiens, UniProt Q86WV6, H232R); assay: Differential Scanning Fluorimetry with WT STING; type: binding; conditions: thermal shift vs STING apoprotein; 150 μM CDN; truncated WT STING (residues 140-343)
T1 construct: truncated human WT STING or AQ STING (amino acid residues 140-343); 8xHis (N, cleaved yes); SUMO (N, cleaved yes); made in house; host or cells: E. coli Rosetta-gami B (DE3)

[1] = biological target: T2, human wild type STING (WT STING) (Homo sapiens, UniProt Q86WV6, H232R); assay: Digitonin assay using 293T wtSTING-FL reporter cells; type: cell-based; conditions: 293T wtSTING-FL cells; compounds in Digitonin buffer 30 minutes, then 5 hours in medium; ISRE firefly luciferase
[2] = biological target: T3, AQ human STING (G230A-R293Q) (Homo sapiens, UniProt Q86WV6, G230A/H232R/R293Q); assay: Differential Scanning Fluorimetry with AQ STING; type: binding; conditions: thermal shift vs STING apoprotein; 150 μM CDN; truncated AQ STING (residues 140-343)
T3 construct: truncated human WT STING or AQ STING (amino acid residues 140-343); 8xHis (N, cleaved yes); SUMO (N, cleaved yes); made in house; host or cells: E. coli Rosetta-gami B (DE3)

[3] = system: peripheral blood mononuclear cell (PBMC); assay: Peripheral blood mononuclear cell assay; conditions: average of one to four donors
Description: Selected compounds were tested in an in vitro peripheral blood mononuclear cell (PBMC) assay. […] Serially diluted tested compounds were added to wells in 50 μl of cultivation medium and cells were incubated with the compounds for 1h at 37° C. with 5% CO2. Plates with cells were then spun 500 g for 5 minutes and the medium was removed. Cells were washed twice with the cell culture medium by the use of centrifugation and gently resuspended in 100 μl medium without compounds. After 15 hour incubation at 37° C. with 5% CO2, the cell culture medium was collected and the levels of interferon-alpha (INF-α), interferon-gamma (INF-γ) and tumor necrosis factor-alpha (TNF-α) were determined with ProcartaPlex Assays (ThermoFisher, Waltham, USA) and MAGPIX System (Merck KGaA, Darmstadt, Germany). […] Values reported are an average of runs from one to four donors.

[4] = biological target: T2, human wild type STING (WT STING); assay: 293T WT STING standard reporter assay; type: cell-based; conditions: 293T wtSTING-FL cells; standard reporter assay without digitonin; 7 hours; ISRE firefly luciferase; read-out: 293T WT STING EC50
[5] = PBMC, read-out: PBMC EC50 IFN-α, compounds 1h, washed, 15 hour incubation, interferon-alpha level in medium
[6] = PBMC, read-out: PBMC EC50 TNF-α, compounds 1h, washed, 15 hour incubation, tumor necrosis factor-alpha level in medium
[7] = read-out: PBMC EC50 IFN-γ, compounds 1h, washed, 15 hour incubation, interferon-gamma level in medium
[8] = read-out: PBMC EC50 IFN-α, compounds 1h, washed, 15 hour incubation, interferon-alpha level in medium
[9] = read-out: PBMC EC50 TNF-α, compounds 1h, washed, 15 hour incubation, tumor necrosis factor-alpha level in medium
[10] = PBMC, read-out: PBMC EC50 IFN-γ, compounds 1h, washed, 15 hour incubation, interferon-gamma level in medium

T3 sequence (Q86WV6 140-343 G230A/H232R/R293Q): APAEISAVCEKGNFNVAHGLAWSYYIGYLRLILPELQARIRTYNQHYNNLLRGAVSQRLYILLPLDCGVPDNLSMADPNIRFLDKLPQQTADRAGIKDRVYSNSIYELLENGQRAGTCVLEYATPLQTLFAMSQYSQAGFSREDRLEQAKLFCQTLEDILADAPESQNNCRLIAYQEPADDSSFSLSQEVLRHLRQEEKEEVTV
T1 sequence (Q86WV6 140-343 H232R): as the sequence (Q86WV6 140-343 G230A/H232R/R293Q) above, with A91G, Q154R counted along it
T2 sequence (Q86WV6 whole entry H232R, the tested form may be a part): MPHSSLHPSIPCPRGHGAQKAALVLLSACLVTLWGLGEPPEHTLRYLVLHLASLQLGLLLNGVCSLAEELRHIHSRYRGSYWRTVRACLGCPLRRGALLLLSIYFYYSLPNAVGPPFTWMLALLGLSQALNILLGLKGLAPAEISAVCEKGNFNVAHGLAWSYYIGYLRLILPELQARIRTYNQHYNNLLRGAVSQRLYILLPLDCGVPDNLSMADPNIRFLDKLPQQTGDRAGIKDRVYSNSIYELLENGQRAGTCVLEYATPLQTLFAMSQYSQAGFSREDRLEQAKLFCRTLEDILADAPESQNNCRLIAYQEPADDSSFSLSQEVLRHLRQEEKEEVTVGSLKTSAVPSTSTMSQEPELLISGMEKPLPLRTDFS

Compound | DSF ΔTm WT STING (human WT STING) [°C] | EC50 [1] [µM] | DSF ΔTm AQ STING [2] [°C] | EC50 [3, 5] [µM] | EC50 [3, 6] [µM] | EC50 [3, 7] [µM] | EC50 [4] [µM] | EC50 [3, 8] [µM] | EC50 [3, 9] [µM] | EC50 [3, 10] [µM]
Nc1nc2c(ncn2[C@@H]2O[C@@H]3COP(=O)(O)CO[C@H]4[C@@H](F)[C@H](n5cnc6c(N)ncnc65)O[C@@H]4COP(=O)(S)O[C@@H]2[C@@H]3F)c(=O)[nH]1 (single isomer, unassigned) [Compound 11a] | 17.3 | 0.03 | 23.1 | 286 | 180 | 152 | 2.5 | – | – | –
Nc1nc2c(ncn2[C@@H]2O[C@@H]3COP(=O)(O)CO[C@H]4[C@@H](F)[C@H](n5cnc6c(N)ncnc65)O[C@@H]4COP(=O)(S)O[C@@H]2[C@@H]3F)c(=O)[nH]1 (single isomer, unassigned) [Compound 11b] | 22.4 | 0.01 | 29.2 | – | – | 56 | 1.9 | 227 | 171 | –
Nc1ncnc2c1ncn2[C@@H]1O[C@@H]2COP(=O)(S)O[C@@H]3[C@H](F)[C@@H](COP(=O)(O)CO[C@H]2[C@H]1F)O[C@H]3n1cnc2c(=O)[nH]cnc21 (single isomer, unassigned) [Compound 13a] | 18.3 | 0.009 | 21.8 | – | – | – | 1.3 | – | – | –
Nc1ncnc2c1ncn2[C@@H]1O[C@@H]2COP(=O)(S)O[C@@H]3[C@H](F)[C@@H](COP(=O)(O)CO[C@H]2[C@H]1F)O[C@H]3n1cnc2c(=O)[nH]cnc21 (single isomer, unassigned) [Compound 13b] | 20.9 | 0.01 | 26.0 | 150 | 65 | – | 1.1 | – | – | 70
Nc1nc2c(ncn2[C@@H]2O[C@@H]3COP(=O)(S)CO[C@H]4[C@@H](F)[C@H](n5cnc6c(N)ncnc65)O[C@@H]4COP(=O)(O)O[C@@H]2[C@@H]3F)c(=O)[nH]1 (single isomer, unassigned) [Compound 15a] | 13.8 | 0.02 | 19.7 | – | – | – | 2.3 | – | – | –
Nc1nc2c(ncn2[C@@H]2O[C@@H]3COP(=O)(S)CO[C@H]4[C@@H](F)[C@H](n5cnc6c(N)ncnc65)O[C@@H]4COP(=O)(S)O[C@@H]2[C@@H]3F)c(=O)[nH]1 (single isomer, unassigned) [Compound 17a] | 8.7 | 0.54 | 14.3 | – | – | – | 10.2 | – | – | –
Nc1nc2c(ncn2[C@@H]2O[C@@H]3COP(=O)(S)CO[C@H]4[C@@H](F)[C@H](n5cnc6c(N)ncnc65)O[C@@H]4COP(=O)(S)O[C@@H]2[C@@H]3F)c(=O)[nH]1 (single isomer, unassigned) [Compound 17c] | 18.6 | 0.007 | 25.4 | – | – | 42 | 0.14 | 107 | 84 | –
Nc1nc2c(ncn2[C@@H]2O[C@@H]3COP(=O)(S)CO[C@H]4[C@@H](F)[C@H](n5cnc6c(N)ncnc65)O[C@@H]4COP(=O)(S)O[C@@H]2[C@@H]3F)c(=O)[nH]1 (single isomer, unassigned) [Compound 17d] | 19.2 | 0.012 | 27.6 | 69 | 68 | – | 0.4 | – | – | 23
Nc1ncnc2c1ncn2[C@@H]1O[C@@H]2COP(=O)(O)O[C@H]3[C@@H](O)[C@H](n4cnc5c(N)ncnc54)O[C@@H]3COP(=O)(O)O[C@H]2[C@H]1O [3′3′-c-di-AMP, reference compound] | 2.5 | 0.3 | 9.0 | – | – | – | 202 | – | – | –
Nc1ncnc2c1ncn2[C@@H]1O[C@@H]2COP(=O)(O)O[C@@H]3[C@H](F)[C@@H](COP(=O)(O)CO[C@H]2[C@H]1F)O[C@H]3n1cnc2c(N)ncnc21 [Compound 28, (1S,6R,8R,9R,10R,16R,18R,19R)-8,18-bis(6-amino-9H-purin-9-yl)-9,19-difluoro-3,13-dihydroxy-2,4,7,11,14,17-hexaoxa-3λ^5,13λ^5-diphosphatricyclo[14.2.1.0^6,^10]nonadecane-3,13-dione] | 9.3 | – | 13.3 | – | – | – | 6.2 | – | – | –
